21 compounds from US9650339B2, “Inhibitors of histone demethylases” (Gilead Sciences, Inc., priority 2013, dated 2017) can be followed below.

The target in the first assay is T1, KDM2A (Homo sapiens, UniProt Q9Y2K7).
T1 construct: Full length; host or cells: U2OS
T1 sequence (Q9Y2K7 1-1162): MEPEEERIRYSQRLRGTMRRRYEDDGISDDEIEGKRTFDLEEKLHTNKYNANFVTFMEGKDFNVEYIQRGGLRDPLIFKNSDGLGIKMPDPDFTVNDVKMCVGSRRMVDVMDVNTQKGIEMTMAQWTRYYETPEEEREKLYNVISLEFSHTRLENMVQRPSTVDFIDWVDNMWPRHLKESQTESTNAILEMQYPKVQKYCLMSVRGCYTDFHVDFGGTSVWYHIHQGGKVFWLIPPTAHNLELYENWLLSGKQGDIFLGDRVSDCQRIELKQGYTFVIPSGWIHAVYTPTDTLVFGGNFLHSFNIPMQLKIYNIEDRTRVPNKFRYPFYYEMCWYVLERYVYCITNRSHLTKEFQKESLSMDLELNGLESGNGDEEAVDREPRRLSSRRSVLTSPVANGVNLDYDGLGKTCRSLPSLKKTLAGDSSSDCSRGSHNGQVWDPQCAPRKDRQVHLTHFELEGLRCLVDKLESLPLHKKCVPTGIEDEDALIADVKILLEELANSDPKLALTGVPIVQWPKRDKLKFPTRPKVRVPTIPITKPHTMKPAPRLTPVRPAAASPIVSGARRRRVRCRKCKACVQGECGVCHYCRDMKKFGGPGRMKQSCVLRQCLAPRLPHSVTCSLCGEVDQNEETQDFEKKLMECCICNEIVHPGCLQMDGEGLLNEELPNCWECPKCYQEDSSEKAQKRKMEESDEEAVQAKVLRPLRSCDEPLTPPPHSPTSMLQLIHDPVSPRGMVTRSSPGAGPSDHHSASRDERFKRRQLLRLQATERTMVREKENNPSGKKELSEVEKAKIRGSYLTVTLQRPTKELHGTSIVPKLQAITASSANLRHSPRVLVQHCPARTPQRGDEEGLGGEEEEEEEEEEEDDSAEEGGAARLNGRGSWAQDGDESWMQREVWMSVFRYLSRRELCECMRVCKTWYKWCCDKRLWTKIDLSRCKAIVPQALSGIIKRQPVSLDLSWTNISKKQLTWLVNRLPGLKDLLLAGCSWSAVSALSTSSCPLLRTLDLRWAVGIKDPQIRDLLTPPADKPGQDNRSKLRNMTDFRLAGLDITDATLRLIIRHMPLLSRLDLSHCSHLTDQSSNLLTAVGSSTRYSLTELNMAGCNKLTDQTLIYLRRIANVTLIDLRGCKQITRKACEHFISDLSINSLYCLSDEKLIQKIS
As to the kind of experiment: Histone lysine demethylase immunofluorescence assay, U2OS cells transfected with KDM2A. It counts as cell-based. The note with it: U2OS cells transfected with pCMVHA KDM2A; mark detected H3K36me2; 20 hours. As to the method:
(§1) U2OS cells were seeded 24 hours before transfection. Transfection was performed with Fugene HD transfection reagent as recommended by the manufacturer. 6 hours after transfection, the cells were harvested and seeded into multi well plates into media containing compound. The media used was DMEM containing 10% FBS and pen/strep. 20 hours after incubation of cells with compounds, the cells were washed in PBS, harvested by fixation with formaldehyde 4% aqueous solution, and washed in PBS. Subsequently, the cells were permeabilized in PBS with 0.2% Triton X-100 for. Blocking was performed in PBS with 0.2% Triton X-100 and 5% FBS. The cells were incubated with primary antibodies in blocking solution over night at 4° C. The primary antibodies used in the assays were HA.11 (Covance, MMS-101P) and the antibody detecting the mark specified in the table below. After incubation with primary antibodies, the cells were washed with PBS, incubated with secondary antibodies (Alexa fluor 594 goat anti rabbit IgG, Invitrogen, A11012; Alexa flour 488 donkey anti mouse IgG, Invitrogen, A21202) and Hoechst, (Sigma, 33342) in blocking solution, and washed again with PBS. Finally, PBS was added and high throughput imaging and analysis were performed by an IN Cell Analyzer 1000 (GE Healthcare). The robot software analyzed individual cells and divided these into HA+ (transfected cells) and HA− (non-transfected cells). The IC50 values were based on an average measure of the staining of the mark specified in the table below in the transfected cells.
Consider `CN(CC(=O)N1CCCCC1)Cc1cc(C=O)ccn1` [Compound 120, 2-({methyl[2-oxo-2-(piperidin-1-yl)ethyl]amino}-methyl)pyridine-4-carbaldehyde], for which the IC50 (commonly the midpoint of a concentration-inhibition curve) was over 2500 nM.
Same read-out and setting: next, `CN(Cc1ccccc1F)C(=O)CNCc1cc(/C=N/CCO)ccn1` [Compound 92, N-[(2-fluorophenyl)methyl]-2-[({4-[[(2-hydroxyethyl)imino]-methyl]pyridin-2-yl}methyl)amino]-N-methylacetamide]: over 2500 nM; `OCC/N=C/c1ccnc(CNCCc2ccccc2OCc2ccccc2)c1` [Compound 93, 2-[({2-[({2-[2-(benzyloxy)phenyl]-ethyl}amino)methyl]-pyridin-4-yl}methylidene)-amino]ethan-1-ol]: over 2500 nM; `CC(C)C[C@H](NCc1cc(/C=N/CCO)ccn1)C(=O)N1CCCCC1` [Compound 95, (2S)-2-[({4-[[(2-hydroxyethyl)imino]-methyl]pyridin-2-yl}methyl)amino]-4-methyl-1-(piperidin-1-yl)pentan-1-one]: over 2500 nM.

A further assay addresses T2, KDM4A (Homo sapiens, UniProt O75164).
T2 construct: Full length; host or cells: U2OS
T2 sequence (O75164 1-1064): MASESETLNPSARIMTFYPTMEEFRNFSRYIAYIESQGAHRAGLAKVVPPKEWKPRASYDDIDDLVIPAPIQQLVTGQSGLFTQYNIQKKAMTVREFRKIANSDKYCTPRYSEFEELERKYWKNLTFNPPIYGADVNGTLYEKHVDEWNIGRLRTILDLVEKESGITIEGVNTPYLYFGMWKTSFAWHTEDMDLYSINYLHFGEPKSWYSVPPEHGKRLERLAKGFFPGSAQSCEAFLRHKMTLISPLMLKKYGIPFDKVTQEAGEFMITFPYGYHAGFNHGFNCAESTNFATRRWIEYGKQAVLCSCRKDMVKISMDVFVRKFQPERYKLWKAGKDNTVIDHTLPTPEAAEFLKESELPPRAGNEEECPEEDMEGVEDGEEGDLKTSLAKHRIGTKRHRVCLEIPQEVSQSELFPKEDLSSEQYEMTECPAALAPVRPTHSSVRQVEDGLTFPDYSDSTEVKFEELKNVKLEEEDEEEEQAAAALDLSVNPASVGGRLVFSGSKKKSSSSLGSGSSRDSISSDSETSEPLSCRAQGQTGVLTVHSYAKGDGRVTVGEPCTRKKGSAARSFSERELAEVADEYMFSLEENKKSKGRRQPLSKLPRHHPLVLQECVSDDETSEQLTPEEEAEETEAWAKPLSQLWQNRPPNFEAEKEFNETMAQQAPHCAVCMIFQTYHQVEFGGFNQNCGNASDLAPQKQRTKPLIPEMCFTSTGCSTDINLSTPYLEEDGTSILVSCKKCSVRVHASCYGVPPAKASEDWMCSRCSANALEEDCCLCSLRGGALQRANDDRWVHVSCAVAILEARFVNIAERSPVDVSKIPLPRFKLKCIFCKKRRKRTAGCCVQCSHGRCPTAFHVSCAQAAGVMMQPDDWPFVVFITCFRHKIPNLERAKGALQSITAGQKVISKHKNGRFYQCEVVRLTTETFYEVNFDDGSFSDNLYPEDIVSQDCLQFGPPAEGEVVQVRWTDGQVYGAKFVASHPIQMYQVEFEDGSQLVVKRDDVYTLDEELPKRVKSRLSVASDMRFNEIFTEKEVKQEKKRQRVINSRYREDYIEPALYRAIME
The assay can be described thus: Histone lysine demethylase immunofluorescence assay, U2OS cells transfected with KDM4A. It counts as cell-based. Particulars: U2OS cells transfected with pCMVHA KDM4A; mark detected H3K9me3; 20 hours. As to the method: as §1
In turn, `CCN(CCN(C)C)C(=O)CNCc1cc(C=O)ccn1` [Compound 101] yielded an IC50 of 250 to 2500 nM.
`CCN(CCN(C)C)C(=O)CNCc1cc(C2OCC(Cc3ccccc3)CN2C(=O)C(F)(F)F)ccn1` (stereo not drawn) [Compound 90, 2-[({4-[5-benzyl-3-(trifluoroacetyl)-1,3-oxazinan-2-yl]pyridin-2-yl}methyl)amino]-N-[2-(dimethylamino)-ethyl]-N-ethylacetamide]: the half-maximal inhibitory concentration (IC50) was under 250 nM.
`C(=N/C1CC1)/c1ccnc(CNCCCN2CCCC2)c1` [Compound 42, N-{[2-({[3-(pyrrolidin-1-yl)propyl]amino}-methyl)pyridin-4-yl]methylidene}-cyclopropanamine]: the IC50 was over 2500 nM.
The same measure, in the same setting: under `CCN(CC)CCCCNCc1cc(/C=N/CCOC)ccn1` [Compound 60, [4-(diethylamino)butyl]-({4-[[(2-methoxyethyl)imino]-methyl]pyridin-2-yl}methyl)amine] stands 250 to 2500 nM; under `O=Cc1ccnc(CNCC(=O)N2CCC[C@@H]2CN2CCCC2)c1` [Compound 102, 2-[({2-oxo-2-[(2R)-2-(pyrrolidin-1-ylmethyl)pyrrolidin-1-yl]ethyl}amino)-methyl]pyridine-4-carbaldehyde], 250 to 2500 nM; under `CN(C)CCNCc1ccnc(CNCC(=O)N(C)C)c1` [Compound 15, 2-({[4-({[2-(dimethylamino)ethyl]-amino}methyl)pyridin-2-yl]methyl}amino)-N,N-dimethylacetamide], over 2500 nM.
Same read-out and setting: under `O=C(CNCc1cc(/C=N/C2CC2)ccn1)NC1CCN(Cc2ccccc2)C1` (stereo not drawn) [Compound 53, N-(1-benzylpyrrolidin-3-yl)-2-[({4-[N-cyclopropyl-carboximidoyl]pyridin-2-yl}methyl)amino]-acetamide] stands over 2500 nM; under `CN(C)C(=O)CNCc1cc(/C=N/CCC2CCCCC2)ccn1` [Compound 36, 2-[({4-[[(2-cyclohexylethyl)imino]-methyl]pyridin-2-yl}methyl)amino]-N,N-dimethylacetamide], over 2500 nM.
As for `CN(C)C/C=C/CNCc1cc(C=O)ccn1` [Compound 98, 2-({[(2E)-4-(dimethylamino)but-2-en-1-yl]amino}-methyl)pyridine-4-carbaldehyde], the IC50 is under 250 nM.
Same read-out and setting: next, `COc1ccccc1CN1CCC(NC(=O)CNCc2cc(CN)ccn2)CC1` [Compound 9, 2-({[4-(aminomethyl)pyridin-2-yl]methyl}amino)-N-{1-[(2-methoxyphenyl)methyl]-piperidin-4-yl}acetamide]: over 2500 nM.
Still for that read-out and setting: next, `CN(C)CC1CCC(CNCc2cc(/C=N/C3CC3)ccn2)CC1` (stereo not drawn) [Compound 46, N-[(2-{[({4-[(dimethylamino)-methyl]cyclohexyl}-methyl)amino]-methyl}pyridin-4-yl)methylidene]-cyclopropanamine]: under 250 nM.
On the same count and under the same terms, under `CN(C)C(=O)CNCc1cc(CNCC#N)ccn1` [Compound 13, 2-{[(4-{[(cyanomethyl)amino]-methyl}pyridin-2-yl)methyl]amino}-N,N-dimethylacetamide] stands 250 to 2500 nM; under `O=Cc1ccnc(CNCCCN2CCCC2)c1` [Compound 111, 2-({[3-(pyrrolidin-1-yl)propyl]amino}-methyl)pyridine-4-carbaldehyde], over 2500 nM; under `CN(CCCNCc1cc(/C=N/C2CC2)ccn1)Cc1ccccc1` [Compound 41, N-({2-[({3-[benzyl(methyl)amino]-propyl}amino)methyl]-pyridin-4-yl}methylidene)-cyclopropanamine], over 2500 nM.

In another assay the target is T3, KDM6B (Homo sapiens, UniProt O15054).
T3 construct: (a.a. 1026-1682); host or cells: U2OS
T3 sequence (O15054 1026-1682 isoform O15054-1): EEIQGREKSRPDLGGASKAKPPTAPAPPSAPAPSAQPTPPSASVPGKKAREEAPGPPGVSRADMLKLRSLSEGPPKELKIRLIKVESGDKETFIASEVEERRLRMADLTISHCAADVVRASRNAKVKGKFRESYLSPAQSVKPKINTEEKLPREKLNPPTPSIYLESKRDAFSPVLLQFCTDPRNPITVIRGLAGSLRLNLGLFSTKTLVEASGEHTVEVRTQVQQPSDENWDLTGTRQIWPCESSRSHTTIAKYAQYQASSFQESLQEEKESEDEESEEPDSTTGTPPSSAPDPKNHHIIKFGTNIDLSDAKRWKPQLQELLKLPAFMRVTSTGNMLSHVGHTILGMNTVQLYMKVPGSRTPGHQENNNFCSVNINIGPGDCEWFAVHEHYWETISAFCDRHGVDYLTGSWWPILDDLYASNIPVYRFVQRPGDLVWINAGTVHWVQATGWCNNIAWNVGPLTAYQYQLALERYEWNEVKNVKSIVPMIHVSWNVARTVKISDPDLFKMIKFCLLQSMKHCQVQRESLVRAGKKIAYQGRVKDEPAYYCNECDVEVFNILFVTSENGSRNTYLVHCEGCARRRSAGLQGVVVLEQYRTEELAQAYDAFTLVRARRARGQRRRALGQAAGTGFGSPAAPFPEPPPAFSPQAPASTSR
As to the kind of experiment: Histone lysine demethylase immunofluorescence assay, U2OS cells transfected with KDM6B. Type of assay: cell-based. Particulars: U2OS cells transfected with pCMVHA KDM6B; mark detected H3K27me2; 20 hours. As to the method:
as §1
The compound `CCN(CCN(C)C)C(=O)CNCc1cc(C=O)ccn1` [Compound 101] returned an IC50 of over 2500 nM.
Turning to `CCN(CCN(C)C)C(=O)CNCc1cc(C2OCC(Cc3ccccc3)CN2C(=O)C(F)(F)F)ccn1` (stereo not drawn) [Compound 90, 2-[({4-[5-benzyl-3-(trifluoroacetyl)-1,3-oxazinan-2-yl]pyridin-2-yl}methyl)amino]-N-[2-(dimethylamino)-ethyl]-N-ethylacetamide], the IC50 is over 2500 nM.
Same read-out and setting: under `C(=N/C1CC1)/c1ccnc(CNCCCN2CCCC2)c1` [Compound 42, N-{[2-({[3-(pyrrolidin-1-yl)propyl]amino}-methyl)pyridin-4-yl]methylidene}-cyclopropanamine] stands over 2500 nM; under `CNC(C#N)c1ccnc(CNCCCN(C)C)c1` (stereo not drawn) [Compound 24, 2-[2-({[3-(dimethylamino)propyl]-amino}methyl)pyridin-4-yl]-2-(methylamino)-acetonitrile], over 2500 nM.
Same read-out and setting: under `CCN(CC)CCCCNCc1cc(C=O)ccn1` [Compound 107, 2-({[4-(diethylamino)-butyl]amino}-methyl)pyridine-4-carbaldehyde] stands over 2500 nM; under `CCN(CCN(C)C)C(=O)CNCc1cc(CN)ccn1` [Compound 4, 2-({[4-(aminomethyl)pyridin-2-yl]methyl}amino)-N-[2-(dimethylamino)ethyl]-N-ethylacetamide], over 2500 nM.
